row,SMILES,melting point
1,CSc1nnc(-c2ccc(C)cc2)c(-c2ccc(C)cc2)n1,170 to 172 °C
2,C[C@@H]1OC(=O)[C@H]2C[C@H]3CCCC[C@@H]3[C@@H](O)[C@@H]12,195 to 196 °C
3,Cc1ccc(CSc2nc3cc4c(cc3[nH]2)C(C)(C)C(=O)C4(C)C)nc1,220 to 222 °C
4,CC(OC(C)c1ncn2c1CN(C)C(=O)c1cc(Cl)ccc1-2)c1ncn2c1CN(C)C(=O)c1cc(Cl)ccc1-2 (stereo not given),193 to 194 °C
5,Cc1cc([N+](=O)[O-])cnc1CCCC#N,51.5 to 53 °C
6,Cc1nc(-n2cn[nH]c2=O)sc1C(=O)NCc1cccnc1,278 to 279 °C
7,CC(=O)N1CCc2cc(CC(C)Br)cc([N+](=O)[O-])c21 (stereo not given),119 to 120 °C
8,CCOC(=O)Cc1nn(Cc2nc3cc(C(F)(F)F)ccc3s2)c(=O)c2ccccc12,131 to 132 °C
9,Cc1c(Cl)ccc(S(=O)(=O)Cl)c1Cl,75 °C
10,CCCOc1ccc(C(=O)O)c(OCc2ccc(OCCc3nc(-c4ccccc4)oc3C)cc2)c1,108 to 109 °C
11,O=C(O)CCC(O)c1ccc(CCNS(=O)(=O)c2ccc(Cl)cc2)cc1 (stereo not given),191 °C
12,CCOC(=O)c1cnoc1-c1cc(Cl)cc(Cl)c1,50 to 51 °C
13,O=C(NN1CCN(CCc2c[nH]c3ccccc23)CC1)c1ccc(O)cc1,190 to 192 °C
14,O=S(=O)(Nc1ccc2c(OCc3ccc(-c4ccc(Cl)cc4)cc3F)cccc2c1)C(F)(F)F,151 to 153 °C
15,O=S(=O)(c1ccc(Cl)cc1)N1CCCC1c1cccc(F)c1 (racemic),126 °C
16,Cc1c2n(c3ccccc13)C(=O)C(Cc1cccnc1)CC2 (stereo not given),158 to 160 °C
17,Cc1cn(Cc2ccc(F)cc2)cc1C(=O)CC(=O)C(=O)O,162 to 163 °C
18,CC(C(=O)O)c1ccc2noc(-c3ccccc3)c2c1 (stereo not given),145 to 149 °C
19,O=C(C=Cc1cccc(Br)c1)c1cnc2sc3c(n12)CCCCC3,125 to 126 °C
20,FC(F)C(F)(F)Sc1nc2c3ccccc3c3ccccc3c2[nH]1,230 to 231 °C

row,SMILES,melting point
1,CCOC(=O)C1=C(C)NC(COC(C)=O)=C(C(=O)OCC)C1c1ccccc1Cl (stereo not given),98 °C
2,CN(CCCCCCO)c1ccc(N=Nc2ccc(S(C)(=O)=O)cc2)cc1,114 to 116 °C
3,Cc1cc(OCc2ccc(-c3ccc(C(F)(F)F)cc3)nc2C)ccc1OC(C)(C)C(=O)O,164 to 165 °C
4,CCCCCCCCCCCCP(=O)(O)CCCN,175 to 177 °C
5,Cn1nnnc1-c1nccn1Cc1ccccc1,110 to 111 °C
6,c1ccc(C2CNc3c(cnc4ccccc34)O2)cc1 (stereo not given),194 to 195 °C
7,CCOC(=O)C(O)(CC(C)(C)c1cc(F)ccc1OC)C(F)(F)F (stereo not given),38 to 39 °C
8,Cn1cc(C=CC(=O)Nc2ccc(O)cc2)c([N+](=O)[O-])n1,290 to 293 °C
9,CCOC(=O)c1cnn2c1c(NC(C)CC)nc1ccccc12 (stereo not given),82 to 84 °C
10,CCOC(=O)CCc1cc(-c2ccc(Cl)cc2)n(-c2ccc(OC)cc2)n1,80 to 81 °C
11,Cc1cc(-c2ccc(OC3SCC(O)C(O)C3O)cn2)ccn1 (stereo not given),214 °C
12,CCCCc1ccc(-c2[nH]nc3c2C(=O)c2c(NC(C)=O)cccc2-3)cc1,259 °C
13,CCOC(=O)/C=C/C=C/c1ccc(OCc2ccccc2)c(OC)c1,85 to 86 °C
14,CCc1cccc(CC)c1C(=O)Nc1cccc2c1CCN(C)C2,186 to 188 °C
15,O=C(C=Cc1ccccc1)Nc1cccc(O)c1,222 to 223 °C
16,COc1ccc(Br)cc1C(=O)NCCc1ccc(CCC(=O)O)cc1,120 to 121 °C
17,COc1cc(C)nc(NC(=O)NS(=O)(=O)c2cccnc2Cl)n1,165 to 168 °C
18,CC(=NOCc1ccccc1)c1cccc(S(N)(=O)=O)c1,136 to 139 °C
19,COc1ccc(-c2nc(C(N)=O)cn2-c2ccc(OC)cc2)cc1,167 to 169 °C
20,O=C1N(CC2CCCO2)c2cc(F)ccc2C12COc1cc3c(cc12)CCO3 (stereo not given),137 to 139 °C
